According to patent US20060110804A1, “Method of treating an organ for transplantation” (priority 2004, published 2006):
Entries after “also recorded” stand apart in the source; their conditions may differ.

Tests used:
[1] = system: liver grafts; assay: Bile output of cold-preserved liver grafts during ex vivo reperfusion; set-up: species or system rat; settings: for bile output: hemin-treated grafts, 16-hour cold preservation, reperfused with 1 μmol/L of the protoporphyrin; for bile output vs bilirubin-free control: hemin-untreated C16 grafts, 5 μmol/L bilirubin
Method: The rats injected with hemin or physiological saline were anesthetized by intraperitoneal injection of pentobarbital sodium (40 mg/kg body weight) and a PE-10 catheter for bile sample collection was inserted into the common bile duct of each rat. A 16-gauge catheter was inserted into the portal vein and 20 ml lactated Ringer's solution kept at 4° C. was passed through the catheter. Subsequently, rat livers were perfused with 20 ml University of Wisconsin solution (UW solution) of 4° C., excised and then preserved in the same solution at 4° C. for 16 hours. […] After cold preservation for 16 hours, each liver graft was reperfused via the portal vein with 95% oxygen-5% carbon dioxide-saturated Krebs-Henseleit buffer (pH 7.4, 37° C.) at 4 ml/min/g liver in the presence of 30 μmol/L sodium taurocholate (see Document 4).
In the hemin-treated liver grafts from Example 1, after 16-hour cold preservation (Hemin/C16), bile samples were collected from the common bile duct every 5 minutes during 40 minute reperfusion. […] The hemin-untreated grafts receiving no cold preservation (Control) and 16-hour cold preservation (C16) were also provided for the same measurement.
The grafts were reperfused with carbogen-saturated Krebs-Henseleit buffer (pH 7.4, 37° C.) supplemented with bilirubin (Sigma Chemical, Co.) and/or CO in combination with 1 μmol/L ZnPP. […] Similarly, hemin-untreated (a) and hemin-treated (b) grafts were provided in the absence of ZnPP for use as controls.
The same experiment as described in Example 4 was repeated, except that the doses of bilirubin and/or CO were varied. After being cold-preserved for 16 hours, the hemin-treated grafts were reperfused for 30 minutes in the presence of ZnPP using reperfusate containing various concentrations of bilirubin and/or CO, and then measured for the levels of bile output, bile salts and phospholipids in bile from the grafts, which were determined in percentages relative to those obtained by reperfusion in the absence of ZnPP.

[2] = system: liver grafts; assay: Bile salts and phospholipids in bile of ex vivo reperfused liver grafts (enzyme inhibition assay); set-up: species or system rat; settings: hemin-treated C16 grafts, 30 minute reperfusion, concentration of 5 μmol/L or less
Method: To examine whether bilirubin and/or CO could recover the HO-1-inducing effect inhibited by ZnPP, a strong HO activity inhibitor, the following experiment was carried out. The grafts were reperfused with carbogen-saturated Krebs-Henseleit buffer (pH 7.4, 37° C.) supplemented with bilirubin (Sigma Chemical, Co.) and/or CO in combination with 1 μmol/L ZnPP. […] The total amounts of bile salts and phospholipids in bile samples were measured by enzyme inhibition assay according to a reported method (see Document 23).
An attempt was made to examine dose-dependent effects of bilirubin and/or CO during co-perfusion. […] After being cold-preserved for 16 hours, the hemin-treated grafts were reperfused for 30 minutes in the presence of ZnPP using reperfusate containing various concentrations of bilirubin and/or CO, and then measured for the levels of bile output, bile salts and phospholipids in bile from the grafts, which were determined in percentages relative to those obtained by reperfusion in the absence of ZnPP.

[3] = system: liver grafts; assay: Liver isograft transplantation model: bile output after initiation of reperfusion; type: in vivo, rat; settings: grafts washed with Ringer's solution containing a higher concentration of bilirubin than 5 to 10 μmol/L
Method: (§1) To examine in vivo effects of HO-1 preconditioning, a model experiment for liver isograft transplantation was carried out. Male inbred Lewis rats of 220-280 g were allowed to drink water without any restriction, fasted for 24 hours before the experiment, and provided for use as donors and recipients for liver transplantation. In HO-1 preconditioning groups, the rats were hemin-treated at 18 hours before graft preparation in the same manner as used in the ex vivo experiment of Example 1. Liver transplantation was performed according to the technique developed by Kamada (see Document 25) with minor modifications. More specifically, the donors were anesthetized by intraperitoneal injection of pentobarbital sodium (40 mg/kg body weight) and then laparotomized. […]
(§2) In light of Example 7 showing that short-term washing with bilirubin was effective for recovery of post-reperfusion stasis and cell injury in the liver grafts cold-preserved for 16 hours, further attempts were made to examine the in vivo effect of bilirubin washing against post-transplantation injury in the cold-preserved grafts. […] The level of bile output was measured at 30 minutes and 24 hours after initiation of reperfusion. To determine the degree of graft injury at 24 hours after initiation of reperfusion, blood levels of aspartate aminotransferase (AST), alanine aminotransferase (ALT) and LDH were measured in a standard manner. […]

[4] = system: liver parenchymal cells; assay: Immunohistological detection of bilirubin in graft tissue with monoclonal antibody 24G7; type: in vivo, rat
Method: To examine the effect of bilirubin washing on the accessibility of bilirubin to graft tissues, immunohistological detection of bilirubin was performed using the anti-bilirubin-IXα monoclonal antibody 24G7 according to a previously reported method of the inventors (see Document 27). As observed in the grafts perfused with bilirubin-free lactated Ringer's solution (A), the monoclonal antibody 24G7 triggered an immune reaction primarily in liver non-parenchymal cells including Kupffer cells.

[5] = system: liver grafts; type: in vivo; settings: grafts washed with 50 μmol/L bilirubin-containing Ringer's solution
Method: as §1, §2

[6] = system: liver grafts; assay: LDH released into hepatic venous perfusate of ex vivo reperfused liver grafts (liver cell damage); set-up: species or system rat
Method: As in the case of Example 5, after being cold-preserved for 16 hours, the hemin-treated grafts were reperfused for 30 minutes in the presence of ZnPP using reperfusate containing varying concentrations of bilirubin, and then measured for the amount of lactate dehydrogenase (LDH) released into the hepatic venous perfusate, which was indicative of liver cell damage in the grafts. For use as controls, hemin-untreated grafts receiving 16-hour cold preservation (C16) and hemin-treated grafts receiving 16-hour cold preservation (Hemin/C16) were provided in the absence of ZnPP. The amount of LDH was measured as described in an earlier document (see Document 24). […] The grafts were divided into the following test groups: (a) receiving 5 minute reperfusion with the bilirubin-containing buffer and subsequent 35 minute reperfusion in the absence of bilirubin, (b) receiving 15 minute reperfusion with the bilirubin-containing buffer and subsequent 25 minute reperfusion in the absence of bilirubin, and (c) receiving 40 minute perfusion with the bilirubin-containing buffer. As a control group (d), the cold-preserved grafts received only bilirubin-free perfusion for 40 minutes. Bile output was then measured over time for each group. Further, FIGS. 6(B) and (C) show the relationship between reperfusion time with the bilirubin-containing buffer and bile output from the grafts and the relationship between reperfusion time and venous LDH concentration, respectively.

[7] = system: liver grafts; assay: Liver isograft transplantation model: blood levels of AST, ALT and LDH (graft injury); type: in vivo, rat; settings: washing with irrigation solution containing a higher concentration of bilirubin than 5 to 10 μmol/L
Method: as §1, §2

[8] = system: liver grafts; assay: Bilirubin-IXα concentration in bile of ex vivo reperfused liver grafts (ELISA, antibody 24G7); set-up: species or system rat; settings: hemin-treated C16 grafts, co-perfusion with 1 μmol/L ZnPP compared to CuPP
Method: The rats injected with hemin or physiological saline were anesthetized by intraperitoneal injection of pentobarbital sodium (40 mg/kg body weight) and a PE-10 catheter for bile sample collection was inserted into the common bile duct of each rat. A 16-gauge catheter was inserted into the portal vein and 20 ml lactated Ringer's solution kept at 4° C. was passed through the catheter. Subsequently, rat livers were perfused with 20 ml University of Wisconsin solution (UW solution) of 4° C., excised and then preserved in the same solution at 4° C. for 16 hours. Since acute oxidative stress would eventually occur, as judged by intracellular hydroperoxide production which occurred concurrently with a reduction of bile formation, a time period of 16 hours was selected for preservation purposes. […]
In the hemin-treated liver grafts from Example 1, after 16-hour cold preservation (Hemin/C16), bile samples were collected from the common bile duct every 5 minutes during 40 minute reperfusion. The bile samples collected at 30 minutes after initiation of reperfusion were also measured for their bilirubin-IXα concentration by enzyme-linked immunosorbent assay detection using the monoclonal antibody 24G7 capable of recognizing both conjugated and unconjugated bilirubin fractions, as described in earlier documents (see Documents 21 and 22). […]

Compound: copper protoporphyrin-IX [CuPP]
- bile output [1]: substantially the same bile output

Compound: [C-]#[O+] [CO, carbon monoxide]
- recovery of ZnPP-induced reduction of bile output ([1]; hemin-treated C16 grafts, 30 minute co-perfusion, 1 μmol/L ZnPP, 5 μmol/L of each test substance): could not achieved
- percentage of bile output relative to reperfusion in the absence of ZnPP ([1]; hemin-treated C16 grafts, ZnPP, 30 minute reperfusion, concentration of 5 μmol/L or less): no recovery
- percentage of bile salts in bile relative to reperfusion in the absence of ZnPP [2]: no recovery
- percentage of phospholipids in bile relative to reperfusion in the absence of ZnPP [2]: no recovery

Compound: C=CC1=C(C)/C(=C/c2[nH]c(Cc3[nH]c(/C=C4\NC(=O)C(C)=C4C=C)c(C)c3CCC(=O)O)c(CCC(=O)O)c2C)NC1=O [bilirubin]
- adverse effect on bile secretion or cell survival ([1]; hemin-treated C16 grafts, 30 minutes, 5 μmol/L bilirubin in the presence of ZnPP): no adverse effect
- bile output vs bilirubin-free control ([1]; 15 minute reperfusion then 25 minutes without bilirubin): significant decrease
- bile output vs bilirubin-free control ([1]; 40 minute perfusion): significant decrease
- bile output after transplantation [3]: cholestasis occurred
- accessibility of bilirubin to liver parenchymal cells (immune reaction) ([4]; grafts washed with bilirubin-containing Ringer's solution): highly absorbed into liver parenchymal cells
- accessibility of bilirubin to liver parenchymal cells (immune reaction) ([4]; grafts washed with bilirubin-containing Ringer's solution supplemented with PPF): accessibility of bilirubin was canceled
- rats able to survive for 24 hours after transplantation [5]: None
- LDH release (graft damage) ([6]; hemin-untreated C16 grafts, prolonged reperfusion with 5 μmol/L bilirubin-containing buffer): increases in LDH release
- cell injury (sAST, sALT, sLDH) at 24 hours after transplantation [7]: exacerbation of cell injury

Compound: C=CC1=C(C)c2cc3[n-]c(cc4[n-]c(cc5nc(cc1n2)C(C)=C5C=C)c(C)c4CCC(=O)O)c(CCC(=O)O)c3C.[Zn+2] [ZnPP, zinc protoporphyrin-IX]
- bile output [1]: reduced bile output; also recorded: canceled the effect of hemin treatment
- venous LDH release [6]: significantly increased
- bilirubin levels in bile [8]: significant decrease
